From ChEMBL document CHEMBL1157437, “Synthesis and biological activities of reveromycin A and spirofungin A derivatives” (Bioorg Med Chem Lett, 2008)
≈ marks a conversion by molar mass, not a printed value.

How the values were obtained:
[1] = test system: NRK; assay: Effect on morphological reversion in src transformed NRK cells at 10 ug/mL; assay type: functional; details: Rattus norvegicus
[2] = test system: NRK; assay: Effect on morphological reversion in src transformed NRK cells at 30 ug/mL; assay type: functional; details: Rattus norvegicus
[3] = target: T1, Isoleucine--tRNA ligase, cytoplasmic (Homo sapiens, UniProt P41252); assay: Inhibition of IleRS
T1 sequence (P41252 whole entry): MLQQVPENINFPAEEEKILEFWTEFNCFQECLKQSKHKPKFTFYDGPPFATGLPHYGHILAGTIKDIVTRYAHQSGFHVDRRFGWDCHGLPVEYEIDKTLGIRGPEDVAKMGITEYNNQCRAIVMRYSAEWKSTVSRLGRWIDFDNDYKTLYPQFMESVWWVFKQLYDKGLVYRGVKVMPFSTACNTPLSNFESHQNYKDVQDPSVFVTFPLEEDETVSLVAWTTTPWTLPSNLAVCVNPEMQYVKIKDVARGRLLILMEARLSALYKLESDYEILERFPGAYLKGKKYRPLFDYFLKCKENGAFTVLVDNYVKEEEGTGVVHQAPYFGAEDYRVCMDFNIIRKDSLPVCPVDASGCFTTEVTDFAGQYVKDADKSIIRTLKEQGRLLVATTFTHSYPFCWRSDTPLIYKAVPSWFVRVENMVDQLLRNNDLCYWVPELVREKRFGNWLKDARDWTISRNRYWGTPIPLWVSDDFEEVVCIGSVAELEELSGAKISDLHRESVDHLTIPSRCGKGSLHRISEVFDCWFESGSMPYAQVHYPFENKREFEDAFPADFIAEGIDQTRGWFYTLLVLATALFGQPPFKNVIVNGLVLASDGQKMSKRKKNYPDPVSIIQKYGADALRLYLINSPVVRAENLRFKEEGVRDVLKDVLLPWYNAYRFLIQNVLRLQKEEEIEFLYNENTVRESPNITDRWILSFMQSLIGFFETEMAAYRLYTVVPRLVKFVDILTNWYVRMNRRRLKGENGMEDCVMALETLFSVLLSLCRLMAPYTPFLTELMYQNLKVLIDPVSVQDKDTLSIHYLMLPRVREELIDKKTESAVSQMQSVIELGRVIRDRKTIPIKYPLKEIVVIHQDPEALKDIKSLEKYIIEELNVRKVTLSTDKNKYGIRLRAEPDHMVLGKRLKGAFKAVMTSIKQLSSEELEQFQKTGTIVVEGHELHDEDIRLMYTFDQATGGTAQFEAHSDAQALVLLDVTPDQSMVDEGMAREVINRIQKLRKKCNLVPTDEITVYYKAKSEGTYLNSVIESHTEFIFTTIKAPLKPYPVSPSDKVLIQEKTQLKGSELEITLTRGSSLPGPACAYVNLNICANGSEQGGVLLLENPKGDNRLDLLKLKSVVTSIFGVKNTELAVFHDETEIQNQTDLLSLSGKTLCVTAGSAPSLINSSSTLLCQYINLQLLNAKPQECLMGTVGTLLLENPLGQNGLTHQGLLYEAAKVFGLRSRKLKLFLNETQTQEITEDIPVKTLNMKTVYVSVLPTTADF

[4] = test system: NRK; assay: Effect on morphological reversion in src transformed NRK cells at 3 ug/mL; assay type: functional; details: Rattus norvegicus
[5] = test system: NRK; assay: Toxicity against src transformed NRK cells at 100 ug/mL; assay type: cell-based; details: rat
[6] = test system: Osteoclast; assay: Induction of apoptosis in mouse osteoclasts; assay type: functional
[7] = test system: NRK; assay: Effect on morphological reversion in src transformed NRK cells at 100 ug/mL; assay type: functional; details: Rattus norvegicus
[8] = test system: NRK; assay: Effect on morphological reversion in src transformed NRK cells at 1 ug/mL; assay type: functional; details: Rattus norvegicus
[9] = test system: NRK; assay: Effect on morphological reversion in src transformed NRK cells at 0.3 ug/mL; assay type: functional; details: Rattus norvegicus
[10] = test system: NRK; assay: […] morphological reversion in src transformed NRK cells; assay type: functional, cell-based; details: Rattus norvegicus

Which inhibition at 10 µg/mL [1] does the source give for `CC(/C=C/[C@H](OC(=O)CCC(=O)O)[C@@H](C)/C=C/C(=O)O)=C\C[C@H]1O[C@@]2(CC[C@H](C)[C@H](/C=C/C(C)=C/C(=O)O)O2)CC[C@@H]1C` here?
The inhibition at 10 µg/mL was < 10%.

And the inhibition at 30 µg/mL [2]?
The inhibition at 30 µg/mL was < 10%.

And the IC50 [3]?
Its IC50 is > 1660 nM.

And the inhibition at 3 µg/mL [4]?
Its inhibition at 3 µg/mL is < 10%.

What about the Activity [5] of the same molecule?
Its Activity is “Toxic”.

What about the Activity [6] of the same molecule?
Its Activity is 12.4 µg/mL.

How did the inhibition at 10 µg/mL [1] turn out when `CCCC[C@@]1(OC(=O)CCC(=O)O)CC[C@]2(CC[C@H](C)[C@@H](C/C=C(C)/C=C/[C@H](O)[C@@H](C)/C=C/C(=O)O)O2)O[C@H]1/C=C/C(C)=C/C(=O)O` [REVEROMYCIN A] was run?
The inhibition at 10 µg/mL was 50%.

And the inhibition at 30 µg/mL [2]?
Its inhibition at 30 µg/mL is > 80%.

And the inhibition at 100 µg/mL [7]?
Its inhibition at 100 µg/mL is > 80%.

What about the inhibition at 1 µg/mL [8] of the same molecule?
The inhibition at 1 µg/mL was 10%.

What about the IC50 [3] of the same molecule?
Its IC50 is 4.46 nM.

And the inhibition at 3 µg/mL [4]?
Its inhibition at 3 µg/mL is 20%.

And the inhibition at 0.3 µg/mL [9]?
The inhibition at 0.3 µg/mL was < 10%.

What about the EC50 [10] of the same molecule?
The EC50 was 1.58 µg/mL (≈ 2.39 µM).

And the Activity [6]?
The Activity was 0.06 µg/mL.
